Measurements reported in the CheMixHub viscosity set.

Assay: xn = mol fraction of the nth substance listed

CCCCCCCC(=O)OCC(COC(=O)CCCCCCC)OC(=O)CCCCCCC + CCCCO
viscosity [mPa·s], 101.33 kPa
Settings	x1 = 0.1	x1 = 0.2	x1 = 0.3	x1 = 0.4	x1 = 0.5	x1 = 0.6	x1 = 0.7	x1 = 0.8	x1 = 0.9
298 K	3.87	5.49	7.15	8.84	10.54	12.28	14.02	16.05	18
303 K	3.4	4.73	6.13	7.53	8.91	10.29	11.73	13.34	14.82
308 K	2.97	4.12	5.28	6.46	7.57	8.74	9.89	11.2	12.39
313 K	2.62	3.61	4.59	5.56	6.51	7.48	8.44	9.52	10.52

CCCCOCCO + CCCCO
101 kPa
Settings	viscosity [mPa·s]
298.15 K, x1 = 0.7025	2.645
303.15 K, x1 = 0.4	2.255
303.15 K, x1 = 0.6054	2.345
303.15 K, x1 = 0.8042	2.475
308.15 K, x1 = 0.7025	2.045

COC(=O)c1ccccc1 + CCCCO
viscosity [mPa·s], 100 kPa
Settings	x1 = 0.05	x1 = 0.1	x1 = 0.2	x1 = 0.3	x1 = 0.45	x1 = 0.6	x1 = 0.749	x1 = 0.849	x1 = 0.899	x1 = 0.95
293.2 K	2.62	2.397	2.097	1.922	1.787	1.746	1.777	1.836	1.885	1.95
298.2 K	2.308	2.119	1.866	1.719	1.606	1.574	1.604	1.659	1.703	1.761
303.2 K	2.041	1.882	1.668	1.545	1.453	1.429	1.459	1.509	1.549	1.6
308.2 K	1.813	1.678	1.5	1.398	1.32	1.303	1.333	1.381	1.417	1.464
313.2 K	1.616	1.505	1.354	1.267	1.204	1.193	1.224	1.269	1.303	1.345
